The results in this text go back to patent US20120010178A1, “METHODS AND COMPOUNDS FOR TREATMENT OF NEURODEGENERATIVE DISORDERS” (PRESIDENT AND FELLOWS OF HARVARD COLLEGE, priority 2008, published 2012).

“Also recorded” adds a separate entry of the source.

Assay [1] has as its system SMN. Description: SMN immunofluorescence quantification (cytoplasm, nucleus, GEMs) in fibroblasts from SMA patients. The class given is cell-based, human. The settings on record: for levels of cytoplasmic and nuclear SMN (in words): substance alone. A digest of the protocol: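 SMN immunostained and imaged by automated confocal microscopy; per-cell cytoplasmic and nuclear SMN intensity and GEM number and intensity quantified. PFA fixation used for screening.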

The subject of assay [2] is SMN. Description: SMN levels in mouse (ES-cell derived) motor neurons. The settings on record: for SMN levels in motor neurons (in words): mouse motor neurons. It counts as cell-based. The protocol:
Mouse HB9-GFP derived SMN deficient motor neuron cells were incubated for 2 days with compounds from libraries and collections.
Motor neurons were produced from mouse ES-cells expressing cherry fluorescent protein (CFP) under the control of the motor neuron-selective Hb9 promoter, as previously described (Wichterle et al., 2002).
GFP expressing motor neurons were derived from mouse ES cells as described below. After growing for approximately 1 week, motor neurons were treated with allsterpaullone. Two days after treatment with allsterpaullone, cells were fixed and stained with SMN antibody or GFP antibody.
mES cells were differentiated into motor neurons according to methods adapted from Wichterle et. al., Cell (2002), 110:385-397. Briefly, mES cells were grown to 70-80% confluence in 10-cm plates (Falcon) in ES cell medium. To form embryoid bodies, cells were washed once with PBS to eliminate mES medium and then incubated with 1 ml of 0.25% trypsin (GIBCO) for 5-10 min at 21-25° C. (RT). Cells were then resuspended in 10 ml of DM1 medium (DMEM-F12, GIBCO), 10% knockout serum (GIBCO), penicillin, streptomycin, glutamine (GIBCO) and 2-mercaptoethanol (GIBCO), counted and plated at a concentration of 200,000 cells per ml in Petri dishes (Falcon). Two days later, embryoid bodies were collected and resuspended into new Petri dishes containing DM1 medium supplemented with RAc (100 nM; stock 1 mM in DMSO, Sigma) and HhAg (100 nM). […] treatment was repeated with the same concentration of RAc (100 nM) and high concentration of HhAg (1 μM). On day 6, the embryoid bodies were collected in a 15-ml Falcon tube, and incubated in Earle's balanced salt solution with 20 units of Papain and 1,000 units of DNase I (Worthington Biochemical) for 10 min at 37° C. The mixture was then triturated with a 10-ml pipette and centrifugated for 5 min at 800 rpm. The resulting cell pellet was washed with PBS and resuspended in F12 medium (F12 medium, GIBCO) with 2% fetal bovine serum (GIBCO), B-27 supplement (GIBCO), (GDNF and BDNF, 20 ng ml^−1, R&D Systems). The cells were counted and plated on poly-ornithine coated 96-well plates (VWR).

Assay [3] deals with T1, GSK3b (Ser-9 phosphorylation) (Homo sapiens, UniProt P49841).
T1 construct: endogenous in cells; host or cells: SMA patient fibroblasts (GM09677), starved in 0.5% FBS before treatment
Briefly: p-GSK(Ser9) phosphorylation in patient fibroblasts (western blot / immunofluorescence). It counts as cell-based. The following applies: patient fibroblasts. How it is done:
Compounds were stored at appropriate temperature and dissolved accordingly to the manufacturers (Tocris, Enzo, EMD and Sigma-Aldrich) in DMSO (Sigma-Aldrich), unless stated otherwise (Monensin Na in EtOH, DMPQ in water). Growth factors and PDGF neutralizing antibodies (R&D Systems) were reconstituted with buffers recommended by the supplier. For generation of the dose curves, 1×10^3 fibroblasts were plated on to 96-well Greiner Senso plates (VWR) and treated with compounds on the second day then fixed and stained at the indicated time points. For GSK inhibitors and performing p-GSK3b(Ser9) detection, two days after plating growth media containing 5% FBS was replaced to the media with FBS reduced down to 0.5%, to starve cells for 72 hours. Addition of the GSK inhibitors was done in 5% FBS enriched media. As previously described, starvation increases levels of constitutively activate GSK3b kinase, allowing to achieve a more dramatic inhibitory effect when GSK inhibitors are added together with growth factors that are also known to inhibit GSK by Ser-9 phosphorylation. […] For all compounds and growth factors control wells received solvent in amount equivalent to the highest concentration of the compound in a dose curve. For PDGF inhibitory studies, cells were pre-treated with kinase inhibitors for 2 hours and PDGF was added with a fresh kinase inhibitor solution and incubated for an additional 3 days.
(Immunoblotting shows a protein as a band on a membrane.)

T1 sequence (P49841 whole entry): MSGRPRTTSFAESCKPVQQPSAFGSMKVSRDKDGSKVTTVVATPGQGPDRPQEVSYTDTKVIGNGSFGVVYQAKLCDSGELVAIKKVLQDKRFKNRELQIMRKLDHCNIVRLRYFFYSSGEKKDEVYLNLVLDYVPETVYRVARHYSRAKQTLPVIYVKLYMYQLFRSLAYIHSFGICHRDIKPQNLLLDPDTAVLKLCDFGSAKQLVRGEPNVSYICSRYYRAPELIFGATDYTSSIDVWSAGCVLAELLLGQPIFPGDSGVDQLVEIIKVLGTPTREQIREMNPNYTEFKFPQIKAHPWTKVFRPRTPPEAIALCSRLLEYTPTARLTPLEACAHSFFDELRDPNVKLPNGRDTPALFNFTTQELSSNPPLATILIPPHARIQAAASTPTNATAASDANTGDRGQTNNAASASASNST

On to `O=C1Cc2c([nH]c3ccc([N+](=O)[O-])cc23)-c2ccccc2N1` [Alsterpaullone], for which the “levels of cytoplasmic and nuclear SMN (in words)” value was “increase SMN levels; also recorded: Most active compounds” with SMN [1] (SMA patient fibroblasts) and “able to elevate SMN in patient fibroblasts” in the assay with SMN [1] (SMA patient fibroblasts, listed as alsterpaullone). Besides, the “effect on SMN level” value with SMN [1] (fed cells (10% serum, not starved)) is reported as “weak effect”; in the assay on SMN [1] (pre-starved cells that received fresh media with 10% serum along with compound), 1.9 fold; in the assay on SMN [1] (pre/post-starved cells (0.5% serum)), 1.6 fold. Moreover, the “Gem intensity in neurons (in words)” value in the assay with SMN [2] (ES-cell derived neurons) is recorded as “increases Gem intensity in neurons; also recorded: main increase was observed in Gem Intensity parameter”. The “SMN levels in motor neurons (in words)” value with SMN [2] is listed as “increases level of SMN in neurons; also recorded: able to elevate Smn”; in the assay with SMN [2] (listed as allsterpaullone) it was “Increased SMN levels”. Further, the “p-GSK-Ser9 phosphorylation (in words)” value in assay [3] is “increase in a dose dependent manner”.
With PDGF, in the assay on SMN [1] (SMA patient fibroblasts), the “fold increase in cytoplasmic SMN” value was found to be 2.3 fold; the “fold increase in nuclear SMN” value is given as 1.95 fold; the “levels of cytoplasmic and nuclear SMN (in words)” value is recorded as “increase in SMN levels”. Further, the “levels of cytoplasmic and nuclear SMN (in words)” value in the assay with SMN [1] (SMA patient fibroblasts, listed as platelet derived PDGF) is listed as “strongest activator”. Moreover, the “Avg. SMN fold increase” value in the assay with SMN [1] (human PDGF isoforms, SMA patient fibroblasts) is on record as 2-2.3 fold. Moreover, the “SMN levels in motor neurons (in words)” value in the assay on SMN [2] was “no effect on elevating SMN”. In assay [3], the “p-GSK-Ser9 phosphorylation (in words)” value is given as “phosphorylates GSK313 in a dose-dependent manner”.
